Test results published in patent publication US20140073637A1, “AMINO-SUBSTITUTED-ALKYLOXY-BENZO[E]PYRIDO[4,3-B]INDOLE DERIVATIVES AS NEW POTENT KINASE INHIBITORS” (INSTITUT CURIE, priority 2011, published 2014).

How the values were obtained:
[1] = system: HeLa cells; details: previously reported in Hoang et al, 2009, indicated for comparison, read-out: IC50 (in nM), antiproliferative assay; cited from earlier work
[2] = molecular target: Chk2 (Homo sapiens, UniProt O96017); test: Kinase profiling in vitro at 1 μM; type: biochemical; details: compound at 1 μM, read-out: percentage of remaining activity of recombinant kinase
Description: (§1) The specificity of C14 was tested, in vitro, against 121 kinases representative of the kinome. Assays run in duplicate, at the concentration of 1 μM, were performed by MRC (Dundee, UK). Results are represented in FIG. 1. The main targets are highlighted in FIG. 1B.
(§2) In addition, the percentage of remaining activity of recombinant kinases Aurora kinases A and B and Checkpoint kinases 1 and 2 at the concentration of 1 μM of C1, C2 and C14 have been determined.
(§3) The profiling was performed at the MRC (Dundee University), in duplicate, on a set of 121 kinases. The panel is representative of the major different classes of kinases. Compounds were used at the concentration of 1 μM. In vitro, IC50 were determined on recombinant kinases by Reaction biology Corp (USA).

[3] = molecular target: T1, Aurora B (Homo sapiens, UniProt Q96GD4); test: Kinase profiling in vitro at 1 μM; type: biochemical; details: compound at 1 μM, read-out: percentage of remaining activity of recombinant kinase
Description: as §1, §2, §3

[4] = molecular target: T2, CHK1 (Homo sapiens, UniProt O14757); test: Kinase profiling in vitro at 1 μM; type: biochemical; details: Chk1; compound at 1 μM; read-out: percentage of remaining activity of recombinant kinase
T2 sequence (O14757 1-476): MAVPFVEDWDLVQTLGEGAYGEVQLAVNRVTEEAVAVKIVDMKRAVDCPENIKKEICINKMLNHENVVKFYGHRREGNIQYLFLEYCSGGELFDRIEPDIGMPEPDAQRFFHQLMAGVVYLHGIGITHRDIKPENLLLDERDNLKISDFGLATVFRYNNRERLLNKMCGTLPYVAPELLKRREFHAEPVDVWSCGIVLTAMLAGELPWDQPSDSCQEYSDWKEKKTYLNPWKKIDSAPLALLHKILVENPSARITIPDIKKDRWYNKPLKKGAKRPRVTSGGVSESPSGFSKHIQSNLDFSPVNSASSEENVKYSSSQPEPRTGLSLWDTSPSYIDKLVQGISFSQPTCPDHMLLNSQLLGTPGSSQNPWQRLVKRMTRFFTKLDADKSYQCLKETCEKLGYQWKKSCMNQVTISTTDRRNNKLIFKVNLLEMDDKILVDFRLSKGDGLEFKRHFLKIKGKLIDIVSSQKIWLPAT
Description: as §1, §2, §3

[5] = system: 121 kinases; test: Kinase profiling on a set of 121 kinases; type: biochemical; details: kinases presenting the highest inhibitions; lists not exhaustive
Description: FIG. 1A: The potential inhibition of C14 was tested against 121 kinases, in vitro, at the concentration of 1 μM. The kinase activities, in the presence of C14, are represented, each kinase being represented by a vertical bar. Only 18 kinases have less than 30% activity in the presence of C14.
as §1, §3

[6] = molecular target: T1, Aurora B; test: Aurora B inhibition in cells: Histone H3 Ser10 phosphorylation by western blotting and immunofluorescence; type: cell-based; parameters: endogenous in cells; host or cells: U2OS (human osteosarcoma); HeLa also used for the maleate salts; details: U2OS mitotic extracts; 1 μM overnight; western blotting (FIG. 3)
Description: Actin is used as control of quantity. Cells were incubated overnight in the presence of either C1, or C2 or CH21 or C14 or DMSO(C: control). All compounds were tested at 1 μM. Proteins were detected by western blotting.
Cells were incubated with the different molecules and Aurora B inhibition is estimated by western blotting (WB) and immuno fluorescent experiments. Histone H3 phosphorylated on Ser10 is used as a marker of Aurora B kinase activity and actin as an internal control. Each WB signal is compared to the control in the absence of compound. The efficiency estimated by WB is indicated by +++: very efficient inhibition to −: no inhibition. Immunofluorescent labelling of a mitotic cell by Histone H3 illustrates Aurora B kinase activity. However immunofluorescence is less sensitive than WB. Active molecules are underlined by a square and the intensity of the line indicates the efficiency of inhibition.
FIG. 10A: Immunofluorescence with phospho-Ser10-Histone H3 antibodies. Either the percentage of positive phospho-Ser10-Histone H3 is indicated or a representative mitosis shown. […] Immunofluorescent assays were realized with a specific phospho-antibody and mitotic U2OS cells are recognized by their DNA content stained with Hoechst. On the right, a representative cell or the percentage of H3-S10-P labelled mitosis.
(§4) FIG. 10B: Immunoblotting analysis of histone H3 phosphorylation. U2OS cells were incubated overnight with Nocodazole (50 nM) in the presence of either DMSO (Co) or Compounds (1 μM). Cells were then collected and lyzed. Identical amounts of the lyzed cell samples were run on 18% acrylamide gel containing SDS.
as §4, with “FIGS. 11B and 11C:” for “FIG. 10B:”, “U2OS and HeLa” for “U2OS”
Cells were incubated with the different molecules and Aurora B inhibition is estimated by western blotting and immunofluorescent experiments. Histone H3 phosphorylated on Ser10 is used as a marker of Aurora B kinase activity and actin as an internal control. Results are represented in FIGS. 4 and 10 and Table 3.
Cells were treated by compounds, harvested and lyzed in 9M urea then supplemented with Laemmli sample buffer. Cell extracts were subjected to SDS-PAGE and transferred to nitrocellulose filter (GE Healthcare). After blocking with 5% non-fat milk in PBS for at least 1 hour, the membranes were incubated with the primary antibodies. The following antibodies were used: phospho-Histone H3 Ser10 (1:2000, Upstate Biotechnology), anti LAST1 (Cell signalling), anti Aurora B (epitomics) and anti alpha-tubulin (Sigma) Anti-rabbit horseradish peroxidase (1:5000, GE Healthcare) was used as secondary antibodies. Bands were visualized by ECL technique (Amersham Bioscience).
Cells were seeded on glass coverslips and treated by compounds (1 μM) overnight. After treatment, cells were fixed in 4% formaldhehyde at 37° C. for 15 minutes, then permeabilized for 5 minutes with Triton X-100 in PBS.

[7] = molecular target: T3, Aurora A (Homo sapiens, UniProt O14965); test: Kinase profiling in vitro at 1 μM; type: biochemical; details: Aurora A; compound at 1 μM; read-out: percentage of remaining activity of recombinant kinase
T3 sequence (O14965 1-403): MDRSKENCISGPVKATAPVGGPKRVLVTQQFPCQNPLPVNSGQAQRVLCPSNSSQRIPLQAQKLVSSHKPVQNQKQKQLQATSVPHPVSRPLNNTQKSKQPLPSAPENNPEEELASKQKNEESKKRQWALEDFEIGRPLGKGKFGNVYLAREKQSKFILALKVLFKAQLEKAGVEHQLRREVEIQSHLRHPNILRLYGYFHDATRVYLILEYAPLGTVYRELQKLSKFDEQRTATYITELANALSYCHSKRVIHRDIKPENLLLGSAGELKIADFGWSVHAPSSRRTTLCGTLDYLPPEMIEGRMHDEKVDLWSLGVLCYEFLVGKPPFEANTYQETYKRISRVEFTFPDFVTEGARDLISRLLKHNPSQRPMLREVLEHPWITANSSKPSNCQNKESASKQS
Description: Assays were run in vitro against recombinant kinases. The activity is reported for each kinase, grey histograms for CH21, white for C14 and gradation grey for C1. […] Therefore, C1 and C14 affect differently the Aurora kinase family.
as §1, §2, §3

T1 sequence (Q96GD4 whole entry): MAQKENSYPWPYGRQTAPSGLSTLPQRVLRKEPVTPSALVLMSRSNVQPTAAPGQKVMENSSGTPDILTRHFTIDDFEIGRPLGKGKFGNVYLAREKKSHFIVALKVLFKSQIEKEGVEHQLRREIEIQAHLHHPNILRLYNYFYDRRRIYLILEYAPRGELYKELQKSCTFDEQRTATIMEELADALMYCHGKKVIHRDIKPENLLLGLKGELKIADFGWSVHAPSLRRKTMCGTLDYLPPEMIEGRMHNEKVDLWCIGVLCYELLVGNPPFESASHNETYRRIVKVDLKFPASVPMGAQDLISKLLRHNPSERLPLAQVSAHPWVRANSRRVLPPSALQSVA
Chain of Chk2 (O96017 whole entry, species assumed): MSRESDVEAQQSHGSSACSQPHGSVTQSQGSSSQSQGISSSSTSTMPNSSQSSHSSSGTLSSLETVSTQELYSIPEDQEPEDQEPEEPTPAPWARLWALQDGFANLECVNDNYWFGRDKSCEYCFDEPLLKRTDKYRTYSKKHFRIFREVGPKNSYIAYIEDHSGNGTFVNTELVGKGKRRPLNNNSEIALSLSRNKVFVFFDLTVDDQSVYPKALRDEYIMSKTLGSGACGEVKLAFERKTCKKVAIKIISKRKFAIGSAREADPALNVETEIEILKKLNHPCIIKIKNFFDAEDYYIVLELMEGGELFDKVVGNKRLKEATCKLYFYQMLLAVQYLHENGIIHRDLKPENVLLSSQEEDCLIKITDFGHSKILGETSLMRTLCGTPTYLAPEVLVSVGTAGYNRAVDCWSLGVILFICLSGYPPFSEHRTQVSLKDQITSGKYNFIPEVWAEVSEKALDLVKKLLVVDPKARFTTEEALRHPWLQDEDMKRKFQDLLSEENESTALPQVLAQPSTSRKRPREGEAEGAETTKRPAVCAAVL

- remaining activity at 1 µM [2]: 3%
- remaining activity at 1 µM [3]: 24%
- remaining activity at 1 µM [4]: 12%
- Known Targets (%) [5]: Aurora A Aurora B Chk1 Chk2 Flt3
- Aurora B inhibition in cellulo (Histone H3 phosphorylation, in words) [6]: mild inhibitory activity
- remaining activity at 1 µM [7]: 11%
SMILES: COc1ccc2c(ccc3[nH]c4c(C)c[nH]c(=O)c4c32)c1 [Compound C2, reference compound]
- IC50 [1]: 1160 ± 150 nM
